# Tests used:
# A549 = assay: In vitro cytotoxic activity of compound against A-549 cell line; assay type: functional, cell-based; conditions: Homo sapiens
# HL-60 = assay: In vitro cytotoxic activity of compound against HL-60 cell line; assay type: functional, cell-based; conditions: Homo sapiens
compound,measurement,setting,value
C=CCCCCCCCCCC/C=C/C(O)C(O)C1OC(C(O)C(O)C(=C)CCC(O)C2CC(O)C(O)C(C(O)C(O)/C=C(\C)CC(O)CC(O)C(O)C(O)C(O)C(O)C(C)CC(O)C(O)CC(C)/C=C/CCC(O)CC(=O)/C=C/CCCCC(O)CO)O2)CC(O)C1O (configuration not stated) [LINGSHUIOL],IC50,A549,210 nM
same,IC50,HL-60,230 nM

# — ChEMBL document CHEMBL1146786, “Lingshuiol, a novel polyhydroxyl compound with strongly cytotoxic activity from the marine dinoflagellate Amphidinium sp” (Bioorg Med Chem Lett, 2004)
